Data: US5441941A, “1,2-dihydroellipticines with activity against CNS specific cancer” (The United States of America as represented by the …, priority 1993, dated 1995)

Tests used:
SK-OV-3 = assay: NCI in vitro screen, SRB percent growth, Ovarian Cancer
SNB-75 = assay: NCI in vitro screen, SRB percent growth, CNS Cancer
IGROV1 = assay: NCI in vitro screen, SRB percent growth, Ovarian Cancer
HL-60 (TB) = assay: NCI in vitro screen, SRB percent growth, Leukemia
M19-MEL = assay: NCI in vitro screen, SRB percent growth, Melanoma
OVCAR-5 = assay: NCI in vitro screen, SRB percent growth, Ovarian Cancer
SF-295 = assay: NCI in vitro screen, SRB percent growth, CNS Cancer
MALME-3M = assay: NCI in vitro screen, SRB percent growth, Melanoma
[1] = Log10 Concentration -4.0, 100 µM
[2] = Log10 Concentration -7.0, 0.1 µM

Cc1ccc2[nH]c3c(C)c4c(c(C)c3c2c1)CN(C)C=C4 [Formula XI]
Percent Growth (SK-OV-3; [1]): -58%
Percent Growth (SK-OV-3; Log10 Concentration -5.0): -16%
Percent Growth (SK-OV-3; Log10 Concentration -6.0, 1 µM): 36%
Percent Growth (SK-OV-3; [2]): 59%
Percent Growth (SK-OV-3; Log10 Concentration -8.0): 87%
TGI (SK-OV-3; PG=0): 4.87 µM
GI50 (SK-OV-3; PG=+50): 0.25 µM
CC50 (SK-OV-3; read-out: LC-50, PG=-50): 63.3 µM
Percent Growth (SNB-75; [1]): -97%
Percent Growth (SNB-75; Log10 Concentration -5.0): -72%
Percent Growth (SNB-75; Log10 Concentration -6.0, 1 µM): 20%
Percent Growth (SNB-75; [2]): 109%
Percent Growth (SNB-75; Log10 Concentration -8.0): 110%
TGI (SNB-75; PG=0): 1.66 µM
GI50 (SNB-75; PG=+50): 0.462 µM
CC50 (SNB-75; read-out: LC-50, PG=-50): 5.75 µM
Percent Growth (IGROV1; [1]): -73%
Percent Growth (IGROV1; Log10 Concentration -5.0): -15%
Percent Growth (IGROV1; Log10 Concentration -6.0, 1 µM): 30%
Percent Growth (IGROV1; [2]): 85%
Percent Growth (IGROV1; Log10 Concentration -8.0): 97%
TGI (IGROV1; PG=0): 4.71 µM
GI50 (IGROV1; PG=+50): 0.438 µM
CC50 (IGROV1; read-out: LC-50, PG=-50): 39.9 µM
Percent Growth (HL-60 (TB); [1]): -30%
Percent Growth (HL-60 (TB); Log10 Concentration -5.0): 25%
Percent Growth (HL-60 (TB); Log10 Concentration -6.0, 1 µM): 102%
Percent Growth (HL-60 (TB); Log10 Concentration -8.0): 111%
TGI (HL-60 (TB); PG=0): 28.7 µM
GI50 (HL-60 (TB); PG=+50): 4.8 µM
CC50 (HL-60 (TB); read-out: LC-50, PG=-50): > 100 µM
Percent Growth (M19-MEL; [1]): -93%
Percent Growth (M19-MEL; Log10 Concentration -5.0): -91%
Percent Growth (M19-MEL; Log10 Concentration -6.0, 1 µM): 38%
Percent Growth (M19-MEL; [2]): 93%
Percent Growth (M19-MEL; Log10 Concentration -8.0): 94%
TGI (M19-MEL; PG=0): 1.98 µM
GI50 (M19-MEL; PG=+50): 0.605 µM
CC50 (M19-MEL; read-out: LC-50, PG=-50): 4.83 µM
Percent Growth (OVCAR-5; [1]): -83%
Percent Growth (OVCAR-5; Log10 Concentration -5.0): 19%
Percent Growth (OVCAR-5; Log10 Concentration -6.0, 1 µM): 97%
Percent Growth (OVCAR-5; [2]): 113%
Percent Growth (OVCAR-5; Log10 Concentration -8.0): 108%
TGI (OVCAR-5; PG=0): 15.2 µM
GI50 (OVCAR-5; PG=+50): 3.99 µM
CC50 (OVCAR-5; read-out: LC-50, PG=-50): 47.4 µM
Percent Growth (SF-295; [1]): -91%
Percent Growth (SF-295; Log10 Concentration -5.0): -31%
Percent Growth (SF-295; Log10 Concentration -6.0, 1 µM): 23%
Percent Growth (SF-295; [2]): 87%
Percent Growth (SF-295; Log10 Concentration -8.0): 92%
TGI (SF-295; PG=0): 2.68 µM
GI50 (SF-295; PG=+50): 0.381 µM
CC50 (SF-295; read-out: LC-50, PG=-50): 20.7 µM
Percent Growth (MALME-3M; [1]): -86%
Percent Growth (MALME-3M; Log10 Concentration -5.0): -40%
Percent Growth (MALME-3M; Log10 Concentration -6.0, 1 µM): 78%
Percent Growth (MALME-3M; [2]): 115%
Percent Growth (MALME-3M; Log10 Concentration -8.0): 113%
TGI (MALME-3M; PG=0): 4.58 µM
GI50 (MALME-3M; PG=+50): 1.72 µM
CC50 (MALME-3M; read-out: LC-50, PG=-50): 16.4 µM
